From patent publication US20230405151A1, “USE OF IRAK4 MODULATORS FOR GENE THERAPY” (Genzyme Corporation, priority 2022, published 2023)

Key:
[1] = system: Human monocytic dendritic cells; assay: LDH release assay (cell cytotoxicity); format: cell-based; settings: 16 nM, 80 nM, 400 nM and 2000 nM with AAV.SAN024 MOI 1e5 24 hrs, versus untreated/uninfected cells
Method: (§1) IRAK4 targeting drugs and AAV Treatments. Dendritic cells were plated in 96 well plates with 200,000 cells per well. Each treatment was performed in triplicates. Cells were treated with zimlovisertib IRAK4 inhibitor (Synonyms: PF-06650833) Cat. No.: HY-19836 (MedChemExpress) and PROTAC IRAK4 degrader-1 Cat. No.: HY-129966 (MedChemExpress) at 16 nm, 80 nm, 400 nm and 2000 nm for 18 hrs at 37° C., 5% CO2 in an incubator. After pre-treatment of 18 hrs with the drugs, AAV vectors at 1e5 MOI were used. The cells were incubated at 37° C., 5% CO2 in an incubator for 24 hours. After 24 hours, plates were centrifuged and media supernatant was collected. The clarified media was analyzed by Meso Scale Discovery MSD (world wide web mesoscale.com/products/v-plex-proinflammatory-panel-1-human-kit-k15049d/) performed by DC3 therapeutics https://www.dc3therapeutics.com/services. […]
LDH Release Assay. Cell cytotoxicity was measured by release of lactate dehydrogenase (LDH) in media supernatants. LDH was quantified using Promega kit (Catalog #G1780) as per manufacturer's protocol. […] Stop Solution was added, and the absorbance signal is measured at 490 nm in a plate reader. https://www.promega.com/products/cell-health-assays/cell-viability-and-cytotoxicity-assays/cytotox-96-non_radioactive-cytotoxicity-assay/?catNum=G1780#protocols […]

[2] = system: Human monocytic dendritic cells infected with AAV.SAN024; assay: Cytokine release (Meso Scale Discovery) from dendritic cells treated with IRAK4 modulators and infected with AAV; format: cell-based; settings: for AAV-induced secretion of IL1b cytokine from dendritic cells: 80 nM, all doses
Method: Preparation of peripheral blood mononuclear cells. Blood from leukopaks (Stem cell technologies) from different donors was decanted into 50 mL tubes and Dulbecco's phosphate buffered saline (DPBS) was added at a 1:1 ratio. The blood plus DBPS mix was gently pipetted into a separate 50 mL tube containing 15 mL Ficoll (GE17-5442-02) to ensure no mixing of the blood and Ficoll phases. The mixture was centrifuged at 2000 RPM for 25 minutes at room temperature (9 acceleration and no braking). The buffy coat containing the peripheral blood mononuclear cells (PBMCs) was collected, transferred to a new tube, and centrifuged for five minutes at 400 RCF. PBMCs were washed three times with phosphate buffered saline (PBS) containing 1% fetal bovine serum (FBS) or fetal calf serum (FCS) and counted.
Isolation of monocytes. CD14+ monocytes were isolated from the PBMCs using CD14 MicroBeads following the manufacturer's protocol (Miltenyi Biotech, Germany, order no. 130-050-201, protocol available online world wide web miltenyibiotec.com/upload/assets/IM0001260.PDF). Briefly, PBMCs were incubated with 20 μL of CD14 MicroBeads per 10^7 total cells for 15 minutes at 2-8° C. PBMCs were applied onto a magnetic column (Miltenyi; world wide web miltenyibiotec.com/US-en/products/ls-columns.html#130-042-401) and unlabeled cells were allowed to pass through. After washing the column three times, the column was removed from the magnetic separator, (Miltneyi; world wide web miltenyibiotec.com/US-en/products/quadromacs-separator-and-starting-kits.html#130-091-051) placed on a collection tube, and magnetically labeled CD14+ monocytes were flushed out by pushing a plunger into the column.
Differentiation of monocytes. CD14+ monocytes were differentiated into dendritic cells using ImmunoCult-ACF Dendritic Cell Media, Differentiation Supplement, and Maturation Supplement (Stem Cell Technologies, catalog #10986, #10988, and #10989; world wide web cdn.stemcell.com/media/Files/pis/DX20521-PIS_1_2_0.pdf?_ga=2.81451927.1035383195.1642105700-1174975582.1603298321) following the manufacturer's protocol available online. Briefly, purified CD14+ monocytes were added to Dendritic Cell Media containing the Differentiation Supplement and incubated at 37° C. for three days. On day 3, media was replaced with fresh Dendritic Cell media containing Differentiation Supplement and cells were incubated for two additional days. On day 5, Maturation Supplement was added to the cells at a 1 to 100 dilution (e.g. 50 μL supplement per 5 mL culture). Differentiated dendritic cells were harvested on day 7.
rAAV production and titration. rAAV vectors (AAV.SAN024 and AAV.SAN029) were produced using a standard triple transfection method (Sena-Esteves and Gao, Cold Spring Harb Protoc; doi:10.1101/pdb.top095513, 2020). All serotypes tested encode the same GFP transgene. Viruses were purified by cesium chloride ultracentrifugation and titrated using both silver staining and quantitative polymerase chain reaction (qPCR).
as §1, with “After pre-treatment of 18 hrs with the drugs, AAV vectors at 1e5 MOI were used.” left out, “https://www.dc3therapeutics.com/services. The experiment outline of PBMC isolation, monocyte purification and dendritic cell differentiation is illustrated in FIG. 1.” for “https://www.dc3therapeutics.com/services.”

[3] = co-treated with 16 nM, 400 nM and 2000 nM and AAV.SAN024 MOI 1e5 at the same time, 24 hrs
[4] = co-treated with 16-2000 nM and AAV.SAN024 MOI 1e5, 24 hrs
[5] = pre-treated 18 hrs with 16 nM, 400 nM and 2000 nM, then AAV.SAN024 MOI 1e5 24 hrs, three donors
[6] = pre-treated 18 hrs with 16-2000 nM, then AAV.SAN024 MOI 1e5 24 hrs

Row | Structure (SMILES) | Cellular toxicity (LDH release in media supernatants) [1] | AAV-induced secretion of IL1b cytokine from dendritic cells [2, 3] | AAV-induced IL6 release from dendritic cells [2, 4] | AAV-induced TNFα release from dendritic cells [2, 4] | AAV-induced secretion of IL1b cytokine from dendritic cells [2, 5] | AAV-induced IL6 release from dendritic cells [2, 6] | AAV-induced TNFα release from dendritic cells [2, 6]
1 | CC[C@@H]1[C@H](F)C(=O)N[C@@H]1COc1nccc2cc(C(N)=O)c(OC)cc12 [zimlovisertib, 1-[[(2S,3S,4S)-3-Ethyl-4-fluoro-5-oxo-2-pyrrolidinyl]methoxy]-7-methoxy-6-isoquinolinecarboxamide] | no cellular toxicity | blocked | Cytokine block was also observed | Cytokine block was also observed | blocked | Cytokine block was also observed | Cytokine block was also observed
2 | O=C1CCC(N2C(=O)c3cccc(NCc4cn(CCCNC(=O)c5ccc(-n6cc(NC(=O)c7coc(-c8ccnc(NCC9CC9)c8)n7)c(C(F)(F)F)n6)cc5)cn4)c3C2=O)C(=O)N1 (centres unmarked) [PROTAC IRAK4 degrader-1] | no cellular toxicity | blocked | Cytokine block was also observed | Cytokine block was also observed | blocked | Cytokine block was also observed | Cytokine block was also observed
